Earlier results as cited in patent US11261449B2, “Anti-cancer RNA aptamers” (CITY OF HOPE, priority 2015, dated 2022).

Assays:
tumor burden = conditions: intravenous injection; cited from earlier work
HepG2 cells = conditions: HepG2, Reebye et al.; cited from earlier work

## C/EBPα-saRNA: saRNA targeting CCAAT/enhancer-binding protein-α; sense and antisense strands AW1, SEQ ID NO:22/23 (sense CGGUCAUUGUCACUGGUCAUU; antisense UGACCAGUGACAAUGACCGUU; listed as RNA, chemistry not fully specified)
Tumor burden
  tumor burden: decreased tumor burden
HepG2 cells
  cell proliferation: decreases cell proliferation in HepG2 cells
